The text below walks through data of patent US5360794A, “Disubstituted and deoxy disubstituted derivatives of α-D-mannofuranosides and β-L-gulofuranosides having anti-inflammatory and anti-proliferative activity” (Medicarb Inc., priority 1992, dated 1994).

In assay [1] the test system is T-lymphocytes (BALB/cBYJ responder spleen cells with mitomycin C treated C57BL/6J stimulator spleen cells). In words: Mixed lymphocyte response (MLR). In kind it is cell-based, mouse. The following applies: estimated IC50, 5 days at 37° C., MTT, 1, 10, 30, 100, and 300 μM. An excerpt:
i Mixed lymphocyte response (MLR).
(§1) The MLR assay measures the effects of a study compound on the activation and antigen presentation of T-lymphocytes, therefore determining immunomodulatory properties. The mouse spleen cell mitogen-induced blastogenesis and the BUD-8 human fibroblast proliferation assays measure the effects of the compounds of the present invention on cellular proliferation of cells involved in the pathogenesis of autoimmune diseases. These two assays are appropriate as screens to ascertain anti-inflammatory and/or autoimmune beneficial activity and are art accepted for such purposes.
The MLR is a classical assay used to measure T cell function by studying the proliferation response of T cells which are activated in vitro by genetically disparate stimulator cells. This is accomplished by co-culturing spleen cells from two different strains of mice. Splenic T cell proliferation occurs as a result of cellular activation signals generated by the ongoing cellular interactions.
In performing MLR assays, BALB/cBYJ mice were euthanized by cervical dislocation and their spleens removed. Single cell suspensions were prepared in culture medium (RPMI-1640 with hepes supplemented with 10% calf serum, 2 mM glutamine, 500 units penicillin/streptomycin, and 4×10^-5 M 2-mercaptoethanol) using a Teflon pestle. The cells were centrifuged at 1500 RPM and the pellets resuspended in ACT (0.15M Tris, 0.14M ammonium chloride, pH 7.2) in order to lyse the red blood cells. After a 5 minute incubation at 37° C. in a waterbath, the cells were washed and resuspended in culture medium. The splenic lymphocytes were counted. C57BL/6J spleen cells, which were used as stimulator cells, were prepared in the same way. The stimulator cells were treated with 50 μg/ml of mitomycin C for 20 minutes at 37° C., then washed five times in culture medium. The proliferative response were measured by culturing 5×10^5 responder spleen cells with […] in 96-well microtiter plates in the presence or absence of test article or vehicle (DMSO). Syngeneic control cultures using mitomycin C treated normal BALB/c spleen cells as the stimulator cells were also run. All cultures were run in triplicate.
Solutions of compounds of the present invention in DMSO were prepared at a stock concentration of 300 mM. Solutions were made in a culture medium to a concentration of 1, 10, 30, 100, and 300 μM. The vehicle DMSO was used as a negative control.
After incubation for 5 days at 37° C. with 5% carbon dioxide, the amount of cell proliferation was measured by adding 20 μl of MTT (10 mg/ml in PBS) (3-[4,5-dimethylthiazol-2-yl]-2,5-diphenyl-tetrazolium bromide) to each well. Plates were incubated for 4 hours at 37° C., after which 180 μl of supernatant was removed and 180 μl of 10% SDS in PBS was added. After an overnight incubation, the optical density (OD) of each well was read on a Molecular Devices microplate reader at 570-650 nm.
The results were determined by calculating the difference between the means of the allogeneic cultures and the means of the syngeneic cultures for each test compound concentration. Differences of the test article groups were compared to the difference of the control group. The percent change from the control was determined and an IC50 estimated. The criteria used to establish activity levels were:
Sixteen (16) novel compounds were assayed for their ability to modulate a Mixed Lymphocyte Response in vitro. The test compounds were added to MLR cultures to give final concentrations of 1, 10, 30, 100, and 300 μM. The responses observed in the test article treated wells were compared to the control wells. […] Based on the estimated IC50, all the test compounds were strong inhibitors of the MLR.

Assay [2] relates to BUD-8 human skin fibroblast cells. In words: BUD-8 human cell line fibroblast proliferation assay. The assay is classed as cell-based. The settings on record: estimated IC50, BUD-8 cells, 3 days, MTT.
Text: ii BUD-8 human cell line fibroblast proliferation assay.
as §1
The skin cell fibroblast line, BUD-8, was originally derived from the normal skin of a person and can now be obtained from the American Type Culture Collection, Rockville, Md. The concentration of the compounds which were used in this assay were: 1, 10, 30, 100, and 300 μM. The vehicle was used as the negative control. Test compounds were prepared in DMSO at a stock concentration of 300 mM. Appropriate dilutions were made in culture medium.
In this assay BUD-8 cells were collected, counted, and diluted to 2×10^4 cells/ml. 0.1 ml was plated per well to give 2×10^3 cells/well. The compounds of the present invention were diluted in culture medium to the appropriate concentrations. Aliquates of 100 μl were distributed to triplicate wells. Control wells with vehicle and wells with media were also run. After a three day incubation at 37° C. with 5% carbon dioxide, proliferation was measured by adding 20 μl of MTT (10 mg/ml in PBS) (3-[4,5-dimethyl thiazol-2-yl]-2,5-diphenyl-tetrazolium bromide) to each well. Plates were incubated for 4 hours at 37° C., after which 180 μl of 10% SDS in PBS were added. After an overnight incubation, the optical density (OD) of each well was read using a Molecular Devices microplate reader at 570-650 nm.
Duplicate cultures were also set up to measure viability. After 3 days of incubation, supernatants were assayed for lactate dehydrogenase (LDH) activity to determine the viability of the cells, which is an indication of the toxicity of the test article on the BUD-8 cells. 0.1 ml of supernatent was mixed with 0.1 ml of the LDH substrate mixture which contains 5.4×10^-2 M L(+) lactate, 6.6×10^-4 M 2-p-iodophenyl-3-p-nitrophenyl tetrazolium chloride, 2.8×10^-4 M phenazine methosulfate, 1.3×10^-3 M NAD, and 0.2M Tris buffer. pH 8.2. Plates were read immediately for 5 minutes at 490 nm using a Molecular Devices microplate reader.
The mean for each test article treated group was determined and compared to the mean of the control group. The percent change from the control was calculated, and the IC50 estimated. The criteria used to establish activity levels were:
Sixteen (16) test articles were assayed for their ability to inhibit fibroblast proliferation. The test article were added to BUD-8 cell cultures to give final concentrations of 1, 10, 30, 100, and 300 μM. The proliferation observed in the test article treated wells were compared to the DMSO control wells.

Setting [3] is: Mus musculus, T-lymphocyte, 120 h.
Setting [4] is: Homo sapiens, Skin fibroblast, 72 h.

Usually IC50 stands for the concentration needed to halve the response being measured.

On to `CCCCCCCCCOCCCO[C@H]1O[C@H]([C@H](O)CN2CCCCCC2)[C@@H]2OC(C)(C)O[C@H]12` [Compound 6, n-Nonyloxypropyl 2,3-O-(1-methylethylidene)-6-deoxy-6-hexamethyleneimino-α-D-mannofuranoside], for which the figures for the IC50 in assay [1] (setting [3]) and in assay [2] (setting [4]) were less than 0.5 µM and 38 µM, respectively.
As to `CCCCCCCCCOCCCO[C@H]1O[C@H]([C@H](C)N2CCCC2)[C@@H]2OC(C)(C)O[C@H]12` [Compound 15, n-Nonyloxypropyl 5,6-dideoxy-2,3-O-(1-methylethylidene)-5-pyrrolidinyl-β-L-gulofuranoside], the IC50 in assay [1] (setting [3]) is 0.99 µM; in assay [2] (setting [4]), 170 µM.
As to `CC1(C)O[C@@H]2[C@H](O1)[C@@H](OCCCc1ccccc1)O[C@@H]2[C@H](O)CN1CCCC1` [Compound 20, Phenylpropyl 6-deoxy 2,3-O-(1-methylethylidene)-6-pyrrolidinyl-α-D-mannofuranoside], the values for the IC50 in assay [1] (setting [3]) and in assay [2] (setting [4]) were less than 1 µM and greater than 300 µM, respectively.
As for “n-Nonyloxypropyl 2,3-O-(1-methylethylidene)-6-deoxy-6-aminothylpyrrolidinyl-α-D-mannofuranoside [Compound 7]”, the values for the IC50 in assay [1] and in assay [2] were 0.75 µM and 105 µM, respectively.
Turning to `CC1(C)O[C@@H]2[C@H](O1)[C@@H](OCCCCN1CCCC1)O[C@@H]2[C@H](O)CO` [Compound 29, 4'-(1-Pyrrolidinyl)butyl 2,3-O-(1-methylethylidene)-α-D-mannofuranoside], the IC50 is 26 µM in assay [1] (setting [3]) and 190 µM in assay [2] (setting [4]).
The matching figures for `CCCCCCCCCOCCCO[C@H]1O[C@H]([C@H](O)CNCCCCCCC)[C@@H]2OC(C)(C)O[C@H]12` [Compound 8, n-Nonyloxypropyl 2,3-(1-methylethylidene)-6-deoxy-6-aminoheptyl-α-D-mannofuranoside]: less than 1 µM and 16 µM.
For `CCCCCCCCCOCCCO[C@H]1O[C@H]([C@H](O)CN2CCOCC2)[C@@H]2OC(C)(C)O[C@H]12` [Compound 5, n-Nonyloxypropyl 2,3-O-(1-methylethylidene)-6-deoxy-6-morpholinyl-α-D-mannofuranoside] the same measures were 19 µM and greater than 200 µM.
With `C[C@@H](OCCCN(C)C)[C@H]1O[C@H](OCCCc2ccccc2)[C@H]2OC(C)(C)O[C@H]21` [Compound 26, Phenylpropyl 6-deoxy 2,3-O-(1-methylethylidene)-5-O-3'-(N'N'-dimethylamino-n-propyl)-α-D-mannofuranoside], the results for the IC50 in assay [1] (setting [3]) and in assay [2] (setting [4]) were less than 1 µM and 65 µM, respectively.
For `C[C@@H](OCCN1CCCC1)[C@H]1O[C@H](OCCCc2ccccc2)[C@H]2OC(C)(C)O[C@H]21` [Compound 27, Phenylpropyl 6-deoxy 2,3-O-(1-methylethylidene)-5-O-(N'-ethylpyrrolidinyl)-α-D-mannofuranoside] the same measures were 5.8 µM and 148 µM.
On to `CCCCCCCCCOCCCO[C@H]1O[C@H]([C@H](O)CN2CCCC2)[C@@H]2OC(C)(C)O[C@H]12` [Compound 3, n-Nonyloxypropyl 2,3-O-(1-methylethylidene)-6-deoxy-pyrrolidinyl-α-D-mannofuranoside], for which the IC50 was less than 1 µM in assay [1] (setting [3]) and 18 µM in assay [2] (setting [4]).
In the case of `CCCCCCCCCOCCCO[C@H]1O[C@H]([C@@H](C)OCCCN(C)C)[C@@H]2OC(C)(C)O[C@H]12` [Compound 10, n-Nonyloxypropyl 2,3-O-(1-methylethylidene)-6-deoxy-5-O-(N,N-dimethylaminopropyl)-α-D-mannofuranoside], the IC50 in assay [1] (setting [3]) is less than 1 µM; in assay [2] (setting [4]), 17 µM.
The matching figures for `CCCCCCCCCOCCCO[C@H]1O[C@H]([C@@H](C)OCCN2CCCC2)[C@@H]2OC(C)(C)O[C@H]12` [Compound 12, n-Nonyloxypropyl 2,3-O-(1-methylethylidene)-6-deoxy-5-O-(N'-ethylpyrrolidinyl)-α-D-mannofuranoside]: less than 0.5 µM and 42 µM.
The matching figures for `C[C@@H]([C@H]1O[C@H](OCCCc2ccccc2)[C@H]2OC(C)(C)O[C@H]21)N1CCCC1` [Compound 24, Phenylpropyl 5,6-dideoxy 2,3-O-(1-methylethylidene)-5-pyrrolidinyl-β-L-gulofuranoside]: less than 1 µM and 225 µM.
Regarding `CCCCCCCNC[C@@H](O)[C@H]1O[C@H](OCCCc2ccccc2)[C@H]2OC(C)(C)O[C@H]21` [Compound 21, Phenylpropyl 6-deoxy 2,3-O-(1-methylethylidene)-6-heptylamino-α-D-mannofuranoside], the figures for the IC50 in assay [1] (setting [3]) and in assay [2] (setting [4]) were less than 1 µM and 19 µM, respectively.
The matching figures for `CCCCCCCCCOCCCO[C@H]1O[C@H]([C@H](O)CN2CCCCC2)[C@@H]2OC(C)(C)O[C@H]12` [Compound 4, n-Nonyloxypropyl 2,3-O-(1-methylethylidene)-6-deoxy-6-piperidinyl-α-D-mannofuranoside]: 27 µM and 35 µM.
Consider `CC1(C)O[C@@H]2[C@H](O1)[C@@H](OCCCc1ccccc1)O[C@@H]2[C@H](O)CNCCCN1CCCC1` [Compound 22, Phenylpropyl 6-deoxy 2,3-O-(1-methylethylidene)-6-aminopropylpyrrolidinyl-α-D-mannofuranoside], for which the IC50 in assay [1] (setting [3]) was 0.85 µM; in assay [2] (setting [4]), 16 µM.
